What all share (format): cell-based, human
For experiment [1], the system named is S1P1 surface expression in SupT1 cells stably expressing tamoxifen-inducible HIV-1SF2-Nef-estrogen receptor construct (Nef-ER). Description: S1P1 cell surface staining (fluorescence cytometry), tamoxifen-activated Nef-ER cells. The note with it: 5 μM FRAX597, Nef activated with tamoxifen (1 μM) 16 hours, FIG. 1A/1D. On the procedure: (§1) S1P1 cell surface staining. For assessing Nef-dependent S1P1 regulations, stably transfected T cells (SupT) resulting in estrogen inducible Nef expression (Nef-ER) were used (see Lee J. H. et al. HIV Activates the Tyrosine Kinase Hck to Secrete ADAM Protease-Containing Extracellular Vesicles. EBIOMEDICINE 2018, 28:151-161). Upon treatment with tamoxifen (1 μM; established using CD4 downregulation) for 16 hours, fluorescence cytometry analysis was performed with an anti-S1P1 monoclonal antibody coupled to eFluor 660 (SW4GYPP, EBIOSCIENCE™).
(§2) HIV-Nef Leads to S1P1 Downregulation and Impaired Migration of T cells to S1P1 Gradients. The effect of Nef on regulation of S1P1 surface expression was examined using a recombinant human T cell line (SupT1), which stably expresses a tamoxifen inducible Nef (Nef-ER). Upon treatment with tamoxifen (1 μM) for 16 hours (as established for CD4 downregulation—see e.g., Walk S. F. et al., Design and use of an inducibly activated human immunodeficiency virus type 1 Nef to study immune modulation. J VIROL 2001; 75 (2):834-843), fluorescence cytometry analysis was performed with an anti-S1P1 monoclonal antibody coupled to eFluor 660 (SW4GYPP, EBIOSCIENCE™). […] To determine whether there was a specific pathway involved in HIV-Nef dependent S1P1, downregulation, PAK2 signaling was tested. […]

Experiment [2] deals with S1P1 surface expression in SupT1 wildtype (SupT1) cells. Description: S1P1 cell surface staining (fluorescence cytometry), mock transfected / control SupT1 cells. As to conditions: PAK2 inhibition (5 μM FRAX597) in mock transfected cells. On the procedure: as §1, §2
The subject of experiment [3] is Nef-ER cells (SupT1) migration towards S1P gradient. The experiment in a line: Migration assay through collagen I-coated transwell chambers towards S1P. The note with it: pretreatment with PAK2 inhibitor (5 μM); 4HT-activated Nef-ER cells; 100 nM S1P, 4 hours, 37° C.; FIG. 1B. The procedure:
Migration assay. 4-Hydroxy tamoxifen (4HT) activated SupT1 control and Nef-ER cells were labeled with 2.5 uM Calcein-AM, washed using centrifugation and resuspended in phenol red free RPMI containing 0.1% fatty acid free BSA. These cells were loaded on the top chamber of collagen I-coated 4 micron transwell chambers as previously described (see, e.g., Iino J. et al. Platelet-derived sphingosine 1-phosphate induces migration of Jurkat T cells. LIPIDS HEALTH DIS 2014, 13:150). Briefly, cells were allowed to transmigrate,
This downregulation can lead to reduced chemotactic migration towards S1P as evidenced from experiments when 4 HT activated. SupT1I control and Nef-ER cells were tested for migration through collagen I-coated transwell chambers towards S1P gradients as previously described for Jurkat T cells (Iino J. et al. 2015).

Turning to `CCn1c(=O)c(-c2ccc(-c3cncs3)cc2Cl)cc2cnc(Nc3ccc(N4CCN(C)CC4)cc3)nc21` [FRAX597], the S1P1 surface expression result was “not only restored S1P1 surface expression, but also increased S1P1 surface expression” in experiment [1]; “restored S1P1 surface expression” in experiment [1] (listed as FRAX 597); “downregulation of S1P1” in experiment [2]; “downregulation of S1P” in experiment [2] (listed as PAK2 inhibitor). For the same compound, the “Migration to bottom chamber containing S1P” value in experiment [3] was “not only restored the effect of NEF-ER but also showed significant increase in migration”.

The record behind these values is patent US20220079948A1, “COMPOSITIONS AND METHODS FOR SUPPRESSING AND/OR TREATING HIV-INFECTION AND/OR A RELATED CLINICAL CONDITION THEREOF” (Indiana University Research And Technology Corporation, priority 2018, published 2022).
